# Measurements from patent EP1561465A2, “Methods of use of fluoroquinolone compounds against bacteria” (LG Life Sciences, Ltd., priority 1999, dated 2001).
# Where two headings read alike, the source gives them in different places.
# Tests used:
# Format in all cases: cell-based
# Moraxella catarrhalis = test: MIC by agar dilution (NCCLS), 411 isolates Buenos Aires 1998-99; conditions: Moraxella catarrhalis (n = 59)
# Streptococcus pneumoniae [1] = test: MIC by NCCLS reference broth microdilution, 450 respiratory tract pathogens; conditions: Streptococcus pneumoniae
# Haemophilus influenzae [2] = test: as above; conditions: Haemophilus influenzae; for MIC90: read-out: MIC90
# Streptococcus pneumoniae [3] = test: MIC by broth microdilution (NCCLS), dried MicroScan panels, clinical isolates 1998-1999; conditions: for MIC90: Streptococcus pneumoniae
# Haemophilus influenzae [4] = test: as above; conditions: for MIC90: Haemophilus influenzae
# Staphylococcus aureus = test: microbe, parasite or virus in culture; conditions: for MIC90: read-out: MIC90
# [5] = tested on: Staphylococcus epidermidis; test: MIC by NCCLS broth microdilution, 1100 Japanese clinical isolates 1997-1998; conditions: for MIC50 / MIC90: Staphylococcus epidermidis
# Citrobacter freundii = test: as above
# [6] = tested on: Gram positive anaerobic and facultative anaerobic pathogens; test: microbe, parasite or virus in culture
# [7] = MIC by agar dilution, Brucella HK agar, 491 anaerobic clinical isolates; conditions: clinical isolates of Bacteroides spp., Prevotella bivia and other Prevotella spp.
# Pseudomonas aeruginosa = test: MIC by agar dilution (NCCLS), 322 nosocomial Gram negative isolates, Athens 1998; conditions: n = 57 isolates
# Acinetobacter spp. = test: as above; conditions: n = 38 strains
# Hafnia alvei = test: MIC by agar dilution (NCCLS M7-A4), 288 enteropathogenic isolates, gemifloxacin and 15 other antimicrobials; conditions: Hafnia alvei N= 32
# Yersinia enterocolitica = test: as above; conditions: Yersinia enterocolitica N= 22
# Shigella spp. = test: as above; conditions: Shigella spp. N= 21
# Summary of the method: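 Agar dilution with ~10^4 cfu/spot inoculum; plates incubated aerobically at 35 °C for 24 h, except C. jejuni, held microaerophilically for 48 h. MIC taken as lowest antibiotic concentration with no visible growth.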
# Aeromonas spp. = test: as above; conditions: Aeromonas spp. N= 16
# [8] = Streptococcus pneumoniae (n = 100)
# [9] = erythromycin resistant M phenotype (n = 16)
# [10] = erythromycin resistant MLSB phenotype (n = 16)
# [11] = penicillin intermediate (n = 16)
# [12] = penicillin susceptible (n = 20)
# [13] = Haemophilus influenzae (n = 100)
# [14] = Streptococcus pneumoniae (302 isolates)
# [15] = Haemophilus influenzae (300 isolates)
# [16] = Staphylococcus aureus, Methicillin-susceptible (9)
# [17] = Staphylococcus epidermidis oxacillin resistant (n=43)
# [18] = Staphylococcus epidermidis oxacillin susceptible (n=35)
# [19] = 24 h, read-out: MIC (mg/L) Range
structure (smiles),measurement,setting,value
"N[C@@H]1[C@H]2CN(c3nc4c(cc3F)c(=O)c(C(=O)O)cn4-c3ccc(F)cc3F)C[C@@H]12 [Trovafloxacin, trovafloxacin]",MIC Range,Moraxella catarrhalis,≤0.004 to 0.03 µg/mL
same,MIC90,Moraxella catarrhalis; read-out: MIC90,0.016 µg/mL
same,MIC,Streptococcus pneumoniae [1]; [8],0.03 to 0.25 µg/mL
same,MIC50,Streptococcus pneumoniae [1]; [8],0.12 µg/mL
same,MIC90,Streptococcus pneumoniae [1]; [8],0.12 µg/mL
same,MIC,Streptococcus pneumoniae [1]; [9],0.06 to 0.12 µg/mL
same,MIC50,Streptococcus pneumoniae [1]; [9],0.06 µg/mL
same,MIC90,Streptococcus pneumoniae [1]; [9],0.12 µg/mL
same,MIC,Streptococcus pneumoniae [1]; [10],0.06 to 0.12 µg/mL
same,MIC50,Streptococcus pneumoniae [1]; [10],0.06 µg/mL
same,MIC90,Streptococcus pneumoniae [1]; [10],0.12 µg/mL
same,MIC,Streptococcus pneumoniae [1]; multi-drug resistant (n = 16),0.06 to 0.12 µg/mL
same,MIC50,Streptococcus pneumoniae [1]; multi-drug resistant (n = 16),0.06 µg/mL
same,MIC90,Streptococcus pneumoniae [1]; multi-drug resistant (n = 16),0.12 µg/mL
same,MIC,Streptococcus pneumoniae [1]; [11],0.06 to 0.12 µg/mL
same,MIC50,Streptococcus pneumoniae [1]; [11],0.12 µg/mL
same,MIC90,Streptococcus pneumoniae [1]; [11],0.12 µg/mL
same,MIC,Streptococcus pneumoniae [1]; penicillin resistant (n = 18),0.06 to 0.25 µg/mL
same,MIC50,Streptococcus pneumoniae [1]; penicillin resistant (n = 18),0.12 µg/mL
same,MIC90,Streptococcus pneumoniae [1]; penicillin resistant (n = 18),0.12 µg/mL
same,MIC,Streptococcus pneumoniae [1]; [12],0.06 to 0.12 µg/mL
same,MIC50,Streptococcus pneumoniae [1]; [12],0.12 µg/mL
same,MIC90,Streptococcus pneumoniae [1]; [12],0.12 µg/mL
same,MIC,Haemophilus influenzae [2]; [13],0.0075 to 0.25 µg/mL
same,MIC50,Haemophilus influenzae [2]; [13],≤ 0.00075 µg/mL
same,MIC90,Haemophilus influenzae [2]; [13],0.06 µg/mL
same,MIC,Haemophilus influenzae [2]; β-lactamase negative (n = 80),0.0075 to 0.25 µg/mL
same,MIC50,Haemophilus influenzae [2]; β-lactamase negative (n = 80),≤ 0.0075 µg/mL
same,MIC90,Haemophilus influenzae [2]; β-lactamase negative (n = 80),0.015 µg/mL
same,MIC,Haemophilus influenzae [2]; β-lactamase positive (n = 20),0.0075 to 0.06 µg/mL
same,MIC50,Haemophilus influenzae [2]; β-lactamase positive (n = 20),≤ 0.0075 µg/mL
same,MIC90,Haemophilus influenzae [2]; β-lactamase positive (n = 20),0.06 µg/mL
same,MIC50,Streptococcus pneumoniae [3]; [14],0.12 µg/mL
same,MIC Range,Streptococcus pneumoniae [3]; [14],≤0.015 to 1 µg/mL
same,MIC90,Streptococcus pneumoniae [3]; Erythromycin-resistant (86),0.25 µg/mL
same,MIC90,Streptococcus pneumoniae [3]; Erythromycin-sensitive (216),0.25 µg/mL
same,MIC90,Streptococcus pneumoniae [3]; Penicillin-intermediate (124),0.25 µg/mL
same,MIC90,Streptococcus pneumoniae [3]; Penicillin-resistant (80),0.25 µg/mL
same,MIC90,Streptococcus pneumoniae [3]; Penicillin-sensitive (98),0.25 µg/mL
same,MIC90,Streptococcus pneumoniae [3]; [14],0.25 µg/mL
same,MIC50,Haemophilus influenzae [4]; [15],≤ 0.015 µg/mL
same,MIC Range,Haemophilus influenzae [4]; [15],≤0.015 to 0.25 µg/mL
same,MIC90,Haemophilus influenzae [4]; [15],≤ 0.015 µg/mL
same,MIC90,Haemophilus influenzae [4]; β-lactamase negative (234),≤ 0.015 µg/mL
same,MIC90,Haemophilus influenzae [4]; β-lactamase positive (66),0.03 µg/mL
same,MIC Range,Staphylococcus aureus; Methicillin-resistant (38),0.031 to 16 µg/mL
same,MIC Range,Staphylococcus aureus; Methicillin-susceptible (9),0.031 to 0.5 µg/mL
same,MIC90,"Staphylococcus aureus; Staphylococcus aureus, Methicillin-resistant (38)",16 µg/mL
same,MIC50,Staphylococcus aureus; [16],0.031 µg/mL
same,MIC90,Staphylococcus aureus; [16],0.5 µg/mL
same,MIC,"Staphylococcus aureus; Staphylococcus aureus, S. aureus KU2240, mutant type Wild (wild strain)",0.063 µg/mL
same,MIC,"Staphylococcus aureus; Staphylococcus aureus, S. aureus KU2241, mutant type NorA (efflux-mediated quinolone resistant)",0.063 µg/mL
same,MIC,"Staphylococcus aureus; Staphylococcus aureus, S. aureus KU2242, mutant type T (DNA topoisomerase IV)",0.25 µg/mL
same,MIC,"Staphylococcus aureus; Staphylococcus aureus, S. aureus KU2243, mutant type G+T (DNA gyrase and topoisomerase IV)",32 µg/mL
same,MIC,"Staphylococcus aureus; Staphylococcus aureus, S. aureus KU2244, mutant type G (DNA gyrase)",0.063 µg/mL
same,MIC,"Staphylococcus aureus; Staphylococcus aureus, S. aureus KU2246, mutant type T (DNA topoisomerase IV)",0.25 µg/mL
same,MIC Range,[5]; [17],0.032 to 8 µg/mL
same,MIC Range,[5]; [18],≤0.008 to 2 µg/mL
same,MIC50,[5]; [17],1 µg/mL
same,MIC90,[5]; [17],2 µg/mL
same,MIC50,[5]; [18],0.032 µg/mL
same,MIC90,[5]; [18],1 µg/mL
same,MIC50,Citrobacter freundii; Citrobacter freundii,0.125 µg/mL
same,MIC90,Citrobacter freundii; Citrobacter freundii (n=39),2 µg/mL
same,MIC Range,Citrobacter freundii; Citrobacter freundii (n=39),≤0.008 to 4 µg/mL
same,MIC,"[6]; Bifidobacterium adolescentis, ATCC15703",1 µg/mL
same,MIC,"[6]; Bifidobacterium bifidum, JCM1255",4 µg/mL
same,MIC,"[6]; Bifidobacterium breve, ATCC15700",4 µg/mL
same,MIC,"[6]; Bifidobacterium longum, ATCC15707",4 µg/mL
same,MIC,"[6]; Bifidobacterium pseudolongum, ATCC25526",4 µg/mL
same,MIC,[6]; Clostridioides difficile,1 µg/mL
same,MIC,"[6]; Clostridium perfringens, ATCC13124",0.125 µg/mL
same,MIC,"[6]; Clostridium septicum, ATCC12464",0.125 µg/mL
same,MIC,"[6]; Cutibacterium acnes, ATCC11828",1 µg/mL
same,MIC,"[6]; Eggerthella lenta, ATCC25559",0.5 µg/mL
same,MIC,"[6]; Finegoldia magna, ATCC29328",0.125 µg/mL
same,MIC,"[6]; Gemella morbillorum, ATCC27824",0.25 µg/mL
same,MIC,"[6]; Lacticaseibacillus casei, JCM1134",0.06 µg/mL
same,MIC,"[6]; Lactiplantibacillus plantarum, JCM1149",4 µg/mL
same,MIC,"[6]; Lactobacillus acidophilus, JCM1132",4 µg/mL
same,MIC,"[6]; Levilactobacillus brevis, JCM1059",1 µg/mL
same,MIC,"[6]; Ligilactobacillus salivarius, JCM1231",0.125 µg/mL
same,MIC,"[6]; Limosilactobacillus reuteri, JCM1112",1 µg/mL
same,MIC,"[6]; Limosilactobacillus reuteri, JCM1173",1 µg/mL
same,MIC,"[6]; Paraclostridium sordellii, ATCC9714",0.25 µg/mL
same,MIC,[6]; Parvimonas micra,0.06 µg/mL
same,MIC,[6]; Peptoniphilus asaccharolyticus,0.5 µg/mL
same,MIC,[6]; Peptoniphilus indolicus,0.125 µg/mL
same,MIC,"[6]; Peptostreptococcus anaerobius, ATCC27337",0.06 µg/mL
same,MIC,[6]; Schaalia odontolytica,4 µg/mL
same,MIC,"[6]; Staphylococcus saccharolyticus, ATCC14953",0.06 µg/mL
same,MIC,"[6]; Streptococcus constellatus, ATCC27823",0.125 µg/mL
same,MIC,"[6]; Streptococcus intermedius, ATCC27335",0.125 µg/mL
same,MIC,"[6]; Thomasclavelia ramosa, ATCC25582",0.5 µg/mL
same,MIC90,[7],1 to 8 µg/mL
same,MIC50,Pseudomonas aeruginosa,2 µg/mL
same,MIC90,Pseudomonas aeruginosa,> 64 µg/mL
same,MIC50,Acinetobacter spp.; Acinetobacter,2 µg/mL
same,MIC90,Acinetobacter spp.; Acinetobacter,16 µg/mL
same,MIC Range,Acinetobacter spp.,≤0.03 to 32 µg/mL
same,MIC,Hafnia alvei; [19],0.03 to 0.12 mg/L
same,MIC,Hafnia alvei; read-out: MIC (mg/L) 50%,0.06 mg/L
same,MIC,Hafnia alvei; read-out: MIC (mg/L) 90%,0.06 mg/L
same,MIC,Yersinia enterocolitica; [19],0.015 to 0.25 mg/L
same,MIC,Yersinia enterocolitica; read-out: MIC (mg/L) 50%,0.06 mg/L
same,MIC,Yersinia enterocolitica; read-out: MIC (mg/L) 90%,0.06 mg/L
same,MIC,Shigella spp.; [19],≤ 0.015 mg/L
same,MIC,Shigella spp.; read-out: MIC (mg/L) 50%,≤ 0.015 mg/L
same,MIC,Shigella spp.; read-out: MIC (mg/L) 90%,≤ 0.015 mg/L
same,MIC (mg/L) Range,Aeromonas spp.,≤0.015 to 0.25 mg/L
same,MIC,Aeromonas spp.; read-out: MIC (mg/L) 50%,≤ 0.015 mg/L
same,MIC,Aeromonas spp.; read-out: MIC (mg/L) 90%,0.03 mg/L
